Measured values published in patent US7872025B2 (Bridge Pharma, Inc., priority 1999, dated 2011).
Entries after “also recorded” stand apart in the source; their conditions may differ.

Key:
mice = assay: Sedative side effects (physostigmine-induced lethality test); conditions: mouse, in vivo
Experimental: The physostigmine-induced lethality test is being used in the present studies. […] In the present study, test compounds are administered orally 60 minutes prior to physostigmine. The numbers of survivors are counted 30 minutes after physostigmine administration.

histamine H1-receptor = biological target: T1, histamine H1-receptor (Cavia porcellus, UniProt P31389); assay: Binding to histaminergic receptors (3H-pyrilamine binding); set-up: species or system guinea pig
T1 construct: from tissue; host or cells: guinea pig cerebellum membranes
Experimental: Briefly, membranes from guinea pig cerebellum are incubated with ^3H-pyrilamine and varying concentrations of the test compound(s). The specific binding of the radioactive ligand to the receptor is defined as the difference between total binding and nonspecific binding, determined in the presence of an excess of unlabelled ligand. The results are expressed as percentage of specific binding in the presence of compounds. […] These parameters are obtained by Hill equation curve fitting using Sigmaplot™ software.

[1] = tested on: bronchial or other smooth muscle tissues; assay: Antihistaminic effects in vitro (histamine contractions of smooth muscle strips); set-up: species or system guinea pigs; conditions: listed as racemic norketotifen
Experimental: Strips of bronchial or other smooth muscle tissues are removed from the body of male guinea pigs weighing 400-600 g. The tissues are suspended in an oxygenated buffer of the composition (mM): NaCl, 133; KCl, 4.7; CaCl2, 2.5; MgSO4, 0.6; NaH2PO4, 1.3; NaHCO3, 16.3; and glucose, 7.7, or in a solution of a similar composition. The solution is maintained at 37.5 C. Contractions are recorded with isometric transducers (Model FT-10) on a Grass polygraph.
In order to assess the viability of each tissue and to serve as a frame of reference, contractions of each strip of tissue are recorded initially in response to exposure to an oxygenated buffer in which the NaCl is replaced by KCl to yield a concentration of 137.7 mM KCl. This is followed by return to the standard oxygenated buffer, and then by exposures to progressively increasing concentrations of histamine, with separate exposures to each concentration only until the peak response has been recorded. Then, leaving one tissue strip untreated, the remaining strips each are exposed for a predetermined time interval to one concentration of an antagonist. Finally, the responses to increasing concentrations of histamine followed by exposure to 137.7 mM KCl are recorded a second time.

inflammation = assay: Anti-inflammatory effects (bronchial eosinophil accumulation; mouse ear croton oil inflammation); conditions: in vivo
Experimental: Inhibition of eosinophil accumulation in lung is determined in sensitized guinea pigs (400 to 600 grams) following intraperitoneal injection of an allergen such as for example PAF (platelet aggregating factor) or bovine serum albumin. At a predetermined time thereafter, the animals are killed with a barbiturate. The trachea is exposed and cannulated. 6×10 ml aliquots of buffered modified Tyrode's solution (composition: NaHCO3 11.9, NaCl 136.9, KCl 2.7, Na2HPO4 0.4, glucose 5.6, EDTA 19.8, gelatin 0.1% w/v; pH 7.4) are introduced successively and aspirated by gentle compression of the lungs. Total fluid recovery normally exceeds 80%. Cell suspensions are concentrated by low speed centrifugation (200 G for 10 min) and the resulting cell pellet is resuspended in 1 ml modified Tyrode's solution. Total cell counts are made by diluting 10 μl of cell suspension in 90 μl of Turk's fluid. Differential cell counts are made from smears fixed in methanol (100%) and stained in Leishman stain. A total of at least 500 cells per smear are counted at 1000 fold magnification, in order to differentiate cell types. Drugs are administered as sustained subcutaneous infusions from an implanted Alza minipump (Alzet 2001 or similar) or by repeated oral or repeated parenteral injections.
Dermal antiinflammatory effects are tested using the mouse ear croton oil inflammation method. This test method is based on Tarrida, J. et al., Meth. Find. Exp. Clin. Pharmacol. (1996) 18(4):233-234 and Blazzo, et al., Prostaglandins (1995) 50:161-168. In short, male mice (25-30 g) are treated with 5 ml/kg of a 2 mg/ml solution of each test compound in physiological saline by intraperitoneal injection. Thirty minutes after injection, croton oil (0, 20 μl of 1.0% croton oil in acetone) or acetone (control) is topically applied to both ears of each mouse. Animals are restrained during croton oil or acetone application and then released into a cage. Before and at predetermined time intervals following croton oil or acetone application, groups of animals are anesthetized with halothane and euthanized by cervical dislocation. […]

histamine H-2 = histamine H-2 (Homo sapiens, UniProt P25021); assay: Histamine H-2 antagonism (no method given)
histamine H-2, sequence (P25021 whole entry): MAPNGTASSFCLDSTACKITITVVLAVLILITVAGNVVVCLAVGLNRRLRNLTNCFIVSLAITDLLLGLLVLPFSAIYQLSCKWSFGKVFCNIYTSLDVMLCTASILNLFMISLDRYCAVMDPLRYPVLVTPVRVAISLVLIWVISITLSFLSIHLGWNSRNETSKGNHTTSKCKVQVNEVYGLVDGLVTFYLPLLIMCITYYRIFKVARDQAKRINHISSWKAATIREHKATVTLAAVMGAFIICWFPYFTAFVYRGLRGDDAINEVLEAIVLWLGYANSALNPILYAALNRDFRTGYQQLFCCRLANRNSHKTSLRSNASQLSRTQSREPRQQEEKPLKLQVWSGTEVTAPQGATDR

T1 sequence (P31389 whole entry): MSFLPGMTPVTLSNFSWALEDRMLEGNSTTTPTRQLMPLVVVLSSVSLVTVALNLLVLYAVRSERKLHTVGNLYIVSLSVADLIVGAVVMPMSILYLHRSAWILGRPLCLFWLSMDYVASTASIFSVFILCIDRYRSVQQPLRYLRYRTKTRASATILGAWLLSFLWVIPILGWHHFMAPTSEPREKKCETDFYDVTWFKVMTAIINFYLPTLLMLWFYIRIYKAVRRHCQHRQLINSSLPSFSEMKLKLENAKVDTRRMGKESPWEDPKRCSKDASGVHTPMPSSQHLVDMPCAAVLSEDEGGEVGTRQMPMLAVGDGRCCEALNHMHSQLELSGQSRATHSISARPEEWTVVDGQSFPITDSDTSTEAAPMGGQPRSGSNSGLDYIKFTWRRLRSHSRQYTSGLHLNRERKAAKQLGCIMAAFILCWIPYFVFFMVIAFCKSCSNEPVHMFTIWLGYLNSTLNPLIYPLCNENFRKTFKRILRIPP

## O=C1Cc2ccccc2C(=C2CCNCC2)c2ccsc21 (racemic) [nor-ketotifen]
mice
  sedative side effects: little or no sedative side effect
Histamine H1-receptor
  histamine H-1 receptor antagonism / blockade: histamine H-1 antagonists
[1]
  antihistaminic effects: qualitatively similar to the antihistaminic effects of racemic ketotifen; also recorded: potent anti-inflammatory and anti-histaminic properties
inflammation
  anti-inflammatory effect: potent anti-inflammatory and anti-histaminic properties
Histamine H-2
  histamine H-2 antagonism: varying degree of histamine H-2 antagonism

## OC1Cc2ccccc2C(=C2CCNCC2)c2ccsc21 (stereo not drawn) [10-hydroxy-norketotifen]
mice
  sedative side effects: significantly less sedation than ketotifen
Histamine H1-receptor
  histamine H-1 receptor antagonism / blockade: block histamine H-1 receptors
inflammation
  anti-inflammatory effect: inhibit inflammation

## CN1CCC(=C2c3ccccc3CC(=O)c3sccc32)CC1 [R(+)-ketotifen]
mice
  sedative side effects: almost all the sedative side effects were found to reside in R(+)-ketotifen

## CN1CCC(=C2c3ccccc3CC(O)c3sccc32)CC1 (stereo not drawn) [10-hydroxy-ketotifen]
mice
  sedative side effects: significantly less sedation than ketotifen
Histamine H1-receptor
  histamine H-1 receptor antagonism / blockade: block histamine H-1 receptors
inflammation
  anti-inflammatory effect: inhibit inflammation

## CN1CCC(=C2c3ccccc3CC(=O)c3sccc32)CC1 (racemic) [ketotifen, 4-(1-methyl-4-piperidyline)-4H-benzo(4,5) cyclohepta-(1,2-b) thiophene-10-one, reference compound]
mice
  sedative side effects: severe and dose-limiting sedative activity
Histamine H-2
  histamine H-2 antagonism: varying degree of histamine H-2 antagonism

## CN1CCC(=C2c3ccccc3CC(=O)c3sccc32)CC1 [S-isomer of ketotifen]
mice
  sedative side effects: not causing the severe sedative side effects of ketotifen
